Assays:
[1] = biological target: Activin receptor type-1B (Homo sapiens) (UniProt P36896); details: Compound concentration 1000.0 nM
[2] = biological target: Activin receptor type-2B (Homo sapiens) (UniProt Q13705); details: Compound concentration 1000.0 nM
[3] = biological target: Mitogen-activated protein kinase kinase kinase 5 (Homo sapiens) (UniProt Q99683); details: Compound concentration 1000.0 nM
[4] = biological target: Tyrosine-protein kinase Blk (Homo sapiens) (UniProt P51451); details: Compound concentration 1000.0 nM
[5] = biological target: Bone morphogenetic protein receptor type-2 (Homo sapiens) (UniProt Q13873); details: Compound concentration 1000.0 nM
[6] = biological target: Calcium/calmodulin-dependent protein kinase kinase 1 (Homo sapiens) (UniProt Q8N5S9); details: Compound concentration 1000.0 nM
[7] = biological target: Cyclin-dependent kinase 4 (Homo sapiens) (UniProt P11802); details: Compound concentration 1000.0 nM
[8] = biological target: Cyclin-dependent kinase 8 (Homo sapiens) (UniProt P49336); details: Compound concentration 1000.0 nM
[9] = biological target: Casein kinase I isoform gamma-2 (Homo sapiens) (UniProt P78368); details: Compound concentration 1000.0 nM
[10] = biological target: Death-associated protein kinase 1 (Homo sapiens) (UniProt P53355); details: Compound concentration 1000.0 nM
[11] = biological target: Dual specificity tyrosine-phosphorylation-regulated kinase 1A (Homo sapiens) (UniProt Q13627); details: Compound concentration 1000.0 nM
[12] = tested on: Epidermal growth factor receptor (Homo sapiens), P00533 [T790M]; details: Compound concentration 1000.0 nM
[13] = biological target: Fibroblast growth factor receptor 3 (Homo sapiens) (UniProt P22607); details: Compound concentration 1000.0 nM
[14] = biological target: Fibroblast growth factor receptor 4 (Homo sapiens) (UniProt P22455); details: Compound concentration 1000.0 nM
[15] = biological target: Receptor-type tyrosine-protein kinase FLT3 (Homo sapiens) (UniProt P36888); details: Compound concentration 1000.0 nM
[16] = tested on: Receptor-type tyrosine-protein kinase FLT3 (Homo sapiens), P36888 [D835Y]; details: Compound concentration 1000.0 nM
[17] = tested on: Receptor-type tyrosine-protein kinase FLT3 (Homo sapiens), P36888 [N841I]; details: Compound concentration 1000.0 nM
[18] = biological target: Homeodomain-interacting protein kinase 1 (Homo sapiens) (UniProt Q86Z02); details: Compound concentration 1000.0 nM
[19] = biological target: Insulin-like growth factor 1 receptor (Homo sapiens) (UniProt P08069); details: Compound concentration 1000.0 nM
[20] = biological target: Inhibitor of nuclear factor kappa-B kinase subunit beta (Homo sapiens) (UniProt O14920); details: Compound concentration 1000.0 nM
[21] = biological target: Mitogen-activated protein kinase 8 (Homo sapiens) (UniProt P45983); details: Compound concentration 1000.0 nM
[22] = tested on: Mast/stem cell growth factor receptor Kit (Homo sapiens), P10721 [A829P]; details: Compound concentration 1000.0 nM
[23] = tested on: Mast/stem cell growth factor receptor Kit (Homo sapiens), P10721 [V559D]; details: Compound concentration 1000.0 nM
[24] = tested on: Mast/stem cell growth factor receptor Kit (Homo sapiens), P10721 [V559D,T670I]; details: Compound concentration 1000.0 nM
[25] = biological target: Serine/threonine-protein kinase LATS1 (Homo sapiens) (UniProt O95835); details: Compound concentration 1000.0 nM
[26] = biological target: Serine/threonine-protein kinase MAK (Homo sapiens) (UniProt P20794); details: Compound concentration 1000.0 nM
[27] = biological target: Microtubule-associated serine/threonine-protein kinase 1 (Homo sapiens) (UniProt Q9Y2H9); details: Compound concentration 1000.0 nM
[28] = biological target: Dual specificity mitogen-activated protein kinase kinase 4 (Homo sapiens) (UniProt P45985); details: Compound concentration 1000.0 nM
[29] = biological target: Serine/threonine-protein kinase MRCK alpha (Homo sapiens) (UniProt Q5VT25); details: Compound concentration 1000.0 nM
[30] = biological target: Serine/threonine-protein kinase 24 (Homo sapiens) (UniProt Q9Y6E0); details: Compound concentration 1000.0 nM
[31] = biological target: Platelet-derived growth factor receptor beta (Homo sapiens) (UniProt P09619); details: Compound concentration 1000.0 nM
[32] = biological target: Calcium-dependent protein kinase 1 (Plasmodium falciparum) (UniProt P62344); details: Compound concentration 1000.0 nM
[33] = tested on: Phosphatidylinositol 4,5-bisphosphate 3-kinase catalytic subunit alpha isoform (Homo sapiens), P42336 [M1043I]; details: Compound concentration 1000.0 nM
[34] = biological target: Phosphatidylinositol 4-phosphate 5-kinase type-1 gamma (Homo sapiens) (UniProt O60331); details: Compound concentration 1000.0 nM
[35] = biological target: Serine/threonine-protein kinase D3 (Homo sapiens) (UniProt O94806); details: Compound concentration 1000.0 nM
[36] = biological target: Receptor-interacting serine/threonine-protein kinase 2 (Homo sapiens) (UniProt O43353); details: Compound concentration 1000.0 nM
[37] = biological target: Rho-associated protein kinase 1 (Homo sapiens) (UniProt Q13464); details: Compound concentration 1000.0 nM
[38] = biological target: Rho-associated protein kinase 2 (Homo sapiens) (UniProt O75116); details: Compound concentration 1000.0 nM
[39] = biological target: Ribosomal protein S6 kinase alpha-5 (Homo sapiens) (UniProt O75582); details: Compound concentration 1000.0 nM
[40] = biological target: Ribosomal protein S6 kinase alpha-6 (Homo sapiens) (UniProt Q9UK32); details: Compound concentration 1000.0 nM
[41] = biological target: Serine/threonine-protein kinase 33 (Homo sapiens) (UniProt Q9BYT3); details: Compound concentration 1000.0 nM
[42] = biological target: Serine/threonine-protein kinase 32B (Homo sapiens) (UniProt Q9NY57); details: Compound concentration 1000.0 nM
[43] = biological target: 5-hydroxytryptamine receptor 1E (Homo sapiens) (UniProt P28566); details: Compound concentration 10.0 uM
[44] = biological target: 5-hydroxytryptamine receptor 2A (Homo sapiens) (UniProt P28223); details: Compound concentration 10.0 uM
[45] = biological target: Sodium-dependent noradrenaline transporter (Homo sapiens) (UniProt P23975); details: Compound concentration 10.0 uM

Platelet-derived growth factor receptor beta (Homo sapiens), sequence (P09619 whole entry): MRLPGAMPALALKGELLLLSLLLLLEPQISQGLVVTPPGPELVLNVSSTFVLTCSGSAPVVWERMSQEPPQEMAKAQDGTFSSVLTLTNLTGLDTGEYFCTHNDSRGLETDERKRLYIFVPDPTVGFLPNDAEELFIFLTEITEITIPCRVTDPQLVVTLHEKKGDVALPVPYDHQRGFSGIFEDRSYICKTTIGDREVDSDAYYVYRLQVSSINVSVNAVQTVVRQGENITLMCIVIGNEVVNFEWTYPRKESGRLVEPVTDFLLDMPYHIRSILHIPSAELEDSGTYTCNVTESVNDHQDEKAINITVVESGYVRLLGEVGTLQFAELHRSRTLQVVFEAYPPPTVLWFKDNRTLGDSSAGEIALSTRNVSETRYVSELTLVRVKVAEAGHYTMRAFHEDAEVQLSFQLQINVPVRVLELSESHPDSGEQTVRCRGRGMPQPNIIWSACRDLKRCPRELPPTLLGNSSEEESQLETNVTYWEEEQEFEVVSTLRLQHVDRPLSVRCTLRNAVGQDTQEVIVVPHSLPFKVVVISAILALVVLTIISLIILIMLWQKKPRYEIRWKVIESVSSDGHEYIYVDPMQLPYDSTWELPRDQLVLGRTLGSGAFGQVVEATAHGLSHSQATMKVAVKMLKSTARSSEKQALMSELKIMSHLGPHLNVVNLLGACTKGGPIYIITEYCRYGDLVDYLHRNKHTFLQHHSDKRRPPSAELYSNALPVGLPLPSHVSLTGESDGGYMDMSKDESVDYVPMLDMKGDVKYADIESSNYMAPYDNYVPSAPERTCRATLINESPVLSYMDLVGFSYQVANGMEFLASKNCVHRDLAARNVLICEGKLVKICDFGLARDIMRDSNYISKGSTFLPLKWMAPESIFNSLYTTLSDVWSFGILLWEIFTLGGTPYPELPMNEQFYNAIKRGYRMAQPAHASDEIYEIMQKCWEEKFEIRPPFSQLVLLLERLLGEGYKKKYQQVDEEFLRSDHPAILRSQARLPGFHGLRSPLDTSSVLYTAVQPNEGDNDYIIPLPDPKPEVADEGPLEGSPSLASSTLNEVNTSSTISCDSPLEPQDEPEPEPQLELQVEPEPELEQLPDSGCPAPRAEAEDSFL
Receptor-interacting serine/threonine-protein kinase 2 (Homo sapiens), sequence (O43353 whole entry): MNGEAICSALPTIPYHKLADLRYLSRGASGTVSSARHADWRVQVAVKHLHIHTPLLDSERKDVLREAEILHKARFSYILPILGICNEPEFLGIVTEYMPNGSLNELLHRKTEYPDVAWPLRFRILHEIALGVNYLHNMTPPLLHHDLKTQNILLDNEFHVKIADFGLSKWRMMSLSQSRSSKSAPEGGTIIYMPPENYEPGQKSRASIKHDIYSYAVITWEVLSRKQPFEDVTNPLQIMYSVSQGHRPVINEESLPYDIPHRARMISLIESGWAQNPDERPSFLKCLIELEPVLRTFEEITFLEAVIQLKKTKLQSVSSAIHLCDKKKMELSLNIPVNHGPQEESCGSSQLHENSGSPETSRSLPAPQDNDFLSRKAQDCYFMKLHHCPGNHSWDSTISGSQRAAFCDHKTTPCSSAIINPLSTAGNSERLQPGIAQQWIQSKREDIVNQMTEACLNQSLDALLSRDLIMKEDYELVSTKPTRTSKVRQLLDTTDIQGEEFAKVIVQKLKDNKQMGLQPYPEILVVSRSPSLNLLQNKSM
Microtubule-associated serine/threonine-protein kinase 1 (Homo sapiens), sequence (Q9Y2H9 whole entry, looked up): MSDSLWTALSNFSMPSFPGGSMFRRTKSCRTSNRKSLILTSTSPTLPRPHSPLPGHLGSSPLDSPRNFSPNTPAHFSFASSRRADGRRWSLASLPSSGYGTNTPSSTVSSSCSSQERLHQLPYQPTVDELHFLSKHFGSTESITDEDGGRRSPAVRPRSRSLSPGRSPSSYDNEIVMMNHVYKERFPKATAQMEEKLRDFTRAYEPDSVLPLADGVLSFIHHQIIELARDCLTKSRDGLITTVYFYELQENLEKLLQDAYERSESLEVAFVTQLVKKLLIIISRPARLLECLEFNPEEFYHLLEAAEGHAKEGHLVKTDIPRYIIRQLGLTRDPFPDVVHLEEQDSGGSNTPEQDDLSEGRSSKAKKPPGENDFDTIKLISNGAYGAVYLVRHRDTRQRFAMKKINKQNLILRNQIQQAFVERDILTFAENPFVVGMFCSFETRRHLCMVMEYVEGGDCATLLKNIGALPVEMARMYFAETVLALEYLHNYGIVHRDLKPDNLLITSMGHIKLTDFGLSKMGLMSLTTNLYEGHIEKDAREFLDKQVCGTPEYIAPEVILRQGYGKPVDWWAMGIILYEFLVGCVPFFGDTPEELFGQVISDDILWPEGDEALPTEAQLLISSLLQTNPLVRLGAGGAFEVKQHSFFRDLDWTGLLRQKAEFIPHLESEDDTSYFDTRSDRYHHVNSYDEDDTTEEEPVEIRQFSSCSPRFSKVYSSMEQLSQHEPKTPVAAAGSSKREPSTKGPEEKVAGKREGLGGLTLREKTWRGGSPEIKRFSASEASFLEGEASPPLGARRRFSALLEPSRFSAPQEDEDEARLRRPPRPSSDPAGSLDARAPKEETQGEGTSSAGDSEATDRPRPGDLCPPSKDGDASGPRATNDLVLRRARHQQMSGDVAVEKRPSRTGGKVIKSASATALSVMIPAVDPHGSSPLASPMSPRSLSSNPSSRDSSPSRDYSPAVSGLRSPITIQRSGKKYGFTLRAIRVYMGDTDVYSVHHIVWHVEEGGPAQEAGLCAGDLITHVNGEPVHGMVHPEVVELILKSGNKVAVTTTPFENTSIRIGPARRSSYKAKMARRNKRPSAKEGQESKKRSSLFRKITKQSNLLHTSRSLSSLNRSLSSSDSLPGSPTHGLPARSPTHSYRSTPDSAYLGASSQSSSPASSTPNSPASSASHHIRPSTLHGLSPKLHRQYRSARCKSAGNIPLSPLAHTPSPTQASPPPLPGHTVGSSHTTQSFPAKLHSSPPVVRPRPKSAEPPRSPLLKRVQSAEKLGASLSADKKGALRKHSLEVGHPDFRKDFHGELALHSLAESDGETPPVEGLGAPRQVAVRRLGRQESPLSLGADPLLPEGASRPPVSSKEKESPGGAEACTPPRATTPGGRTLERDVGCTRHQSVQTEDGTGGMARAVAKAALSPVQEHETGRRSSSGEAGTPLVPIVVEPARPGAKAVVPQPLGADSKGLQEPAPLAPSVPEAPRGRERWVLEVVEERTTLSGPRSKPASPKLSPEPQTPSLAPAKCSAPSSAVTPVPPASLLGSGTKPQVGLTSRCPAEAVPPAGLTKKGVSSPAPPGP
Mast/stem cell growth factor receptor Kit (Homo sapiens), P10721 [V559D,T670I], sequence (P10721 whole entry V559D/T670I): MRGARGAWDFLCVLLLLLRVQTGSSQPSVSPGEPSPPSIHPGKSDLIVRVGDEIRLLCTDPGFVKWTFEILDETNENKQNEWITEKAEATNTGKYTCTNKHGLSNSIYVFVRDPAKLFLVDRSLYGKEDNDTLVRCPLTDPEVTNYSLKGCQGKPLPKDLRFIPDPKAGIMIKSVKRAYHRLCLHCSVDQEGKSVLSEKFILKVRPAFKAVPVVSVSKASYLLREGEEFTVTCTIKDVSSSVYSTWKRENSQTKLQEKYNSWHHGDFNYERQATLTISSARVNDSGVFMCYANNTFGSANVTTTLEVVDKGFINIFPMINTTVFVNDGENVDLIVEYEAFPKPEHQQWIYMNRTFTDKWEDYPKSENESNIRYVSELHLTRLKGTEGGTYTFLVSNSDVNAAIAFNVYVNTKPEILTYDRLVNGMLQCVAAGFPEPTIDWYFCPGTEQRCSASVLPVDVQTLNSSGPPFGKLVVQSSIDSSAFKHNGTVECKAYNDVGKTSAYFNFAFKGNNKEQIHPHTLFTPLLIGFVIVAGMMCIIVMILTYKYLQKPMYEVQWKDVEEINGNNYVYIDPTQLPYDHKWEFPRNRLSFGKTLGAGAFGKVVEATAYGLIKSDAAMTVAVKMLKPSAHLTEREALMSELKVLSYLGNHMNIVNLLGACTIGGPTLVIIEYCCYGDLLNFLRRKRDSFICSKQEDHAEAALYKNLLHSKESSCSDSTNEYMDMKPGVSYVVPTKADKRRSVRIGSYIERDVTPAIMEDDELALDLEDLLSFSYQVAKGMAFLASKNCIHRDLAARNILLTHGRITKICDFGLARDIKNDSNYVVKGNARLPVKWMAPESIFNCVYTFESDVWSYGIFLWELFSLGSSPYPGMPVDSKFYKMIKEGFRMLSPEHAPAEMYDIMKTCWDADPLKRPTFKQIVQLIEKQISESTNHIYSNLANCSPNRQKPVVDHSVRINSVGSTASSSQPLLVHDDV
Fibroblast growth factor receptor 4 (Homo sapiens), sequence (P22455 22-802 limits assumed): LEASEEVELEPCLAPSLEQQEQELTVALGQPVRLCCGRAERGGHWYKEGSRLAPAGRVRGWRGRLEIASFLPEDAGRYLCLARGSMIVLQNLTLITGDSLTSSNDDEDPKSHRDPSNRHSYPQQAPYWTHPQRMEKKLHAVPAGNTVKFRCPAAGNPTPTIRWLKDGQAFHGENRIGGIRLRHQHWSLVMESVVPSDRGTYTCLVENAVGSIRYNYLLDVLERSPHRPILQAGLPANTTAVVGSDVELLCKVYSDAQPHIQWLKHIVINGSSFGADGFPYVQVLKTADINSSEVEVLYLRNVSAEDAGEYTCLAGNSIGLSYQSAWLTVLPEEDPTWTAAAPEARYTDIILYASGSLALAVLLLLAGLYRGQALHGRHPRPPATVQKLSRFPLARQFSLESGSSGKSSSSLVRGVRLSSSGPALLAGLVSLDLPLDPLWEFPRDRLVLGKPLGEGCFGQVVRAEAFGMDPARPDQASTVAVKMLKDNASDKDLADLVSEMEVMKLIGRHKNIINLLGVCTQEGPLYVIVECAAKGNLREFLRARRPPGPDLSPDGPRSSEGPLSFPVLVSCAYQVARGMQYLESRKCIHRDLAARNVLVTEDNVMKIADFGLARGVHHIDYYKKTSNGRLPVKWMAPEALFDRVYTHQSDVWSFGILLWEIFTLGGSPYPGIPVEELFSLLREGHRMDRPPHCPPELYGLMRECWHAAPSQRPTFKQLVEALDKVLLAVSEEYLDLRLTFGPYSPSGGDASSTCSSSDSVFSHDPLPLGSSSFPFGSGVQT

N#Cc1ccc(Nc2ccc3[nH]c(=O)[nH]c3c2)c(Cl)c1
inactive: residual activity [1] 100% | residual activity [2] 81% | residual activity [3] 90% | residual activity [4] 97% | residual activity [5] 91% | residual activity [6] 100% | residual activity [7] 100% | residual activity [8] 100% | residual activity [9] 100% | residual activity [10] 100% | residual activity [11] 100% | residual activity [12] 91% | residual activity [13] 100% | residual activity [14] 100% | residual activity [15] 100% | residual activity [16] 94% | residual activity [17] 77% | residual activity [18] 82% | residual activity [19] 99% | residual activity [20] 89% | residual activity [21] 98% | residual activity [22] 100% | residual activity [23] 100% | residual activity [24] 100% | residual activity [25] 76% | residual activity [26] 100% | residual activity [27] 100% | residual activity [28] 100% | residual activity [29] 100% | residual activity [30] 100% | residual activity [31] 100% | residual activity [32] 99% | residual activity [33] 100% | residual activity [34] 67% | residual activity [35] 100% | residual activity [36] 70% | residual activity [37] 100% | residual activity [38] 100% | residual activity [39] 100% | residual activity [40] 100% | residual activity [41] 93% | residual activity [42] 92% | inhibition [43] 12.6% | inhibition [44] 5.37% | inhibition [45] -2.68%

O=C1CCc2cc(Nc3cc(OC4CCOCC4)c([N+](=O)[O-])cc3Cl)ccc2N1
inactive: residual activity [1] 93% | residual activity [2] 89% | residual activity [3] 84% | residual activity [4] 94% | residual activity [5] 92% | residual activity [6] 100% | residual activity [7] 81% | residual activity [8] 100% | residual activity [9] 88% | residual activity [10] 90% | residual activity [11] 80% | residual activity [12] 85% | residual activity [13] 100% | residual activity [14] 81% | residual activity [15] 90% | residual activity [16] 100% | residual activity [17] 100% | residual activity [18] 95% | residual activity [19] 86% | residual activity [20] 100% | residual activity [21] 91% | residual activity [22] 100% | residual activity [23] 100% | residual activity [24] 94% | residual activity [25] 81% | residual activity [26] 100% | residual activity [27] 100% | residual activity [28] 100% | residual activity [29] 91% | residual activity [30] 97% | residual activity [31] 97% | residual activity [32] 100% | residual activity [33] 94% | residual activity [34] 100% | residual activity [35] 92% | residual activity [36] 53% | residual activity [37] 80% | residual activity [38] 100% | residual activity [39] 100% | residual activity [40] 91% | residual activity [41] 77% | residual activity [42] 88% | inhibition [43] 16.5% | inhibition [44] 3.21% | inhibition [45] 0.76%
